The values below come from PubChem BioAssay (NCI).

Test systems include TK-10 renal; 786-0 renal; OVCAR-4 ovarian; OVCAR-8 ovarian; K-562 leukemia; NCI-H460 lung; UACC-257 melanoma; U251 CNS; NCI/ADR-RES ovarian; SF-539 CNS.
Common to all, as to assay: NCI-60 cell line screen, 48 h

The structures appear in SMILES notation.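 Grown in 96-well plates, cells were treated for 48 hours with each compound at five concentrations. Insufficient inhibition: endpoint recorded as highest concentration tested. GI50: concentration for 50% inhibition of growth. TGI is the concentration that stops growth completely.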

In the case of `CCNC(=O)Nc1ccc(Oc2ccnc3ccc4c(ccn4C)c23)cc1`, the GI50 was 33500 nM in the assay on TK-10 renal; 35500 nM in the assay with 786-0 renal; 54200 nM in the assay on OVCAR-4 ovarian; 23000 nM with OVCAR-8 ovarian; 47400 nM with K-562 leukemia; 25000 nM in the assay with NCI-H460 lung. The GI50 in the assay on UACC-257 melanoma is 28400 nM; in the assay on U251 CNS it was 20600 nM; with NCI/ADR-RES ovarian, 55800 nM; with SF-539 CNS, 23600 nM. For the same molecule, the TGI in the assay on TK-10 renal is 99.3 µM; in the assay with 786-0 renal it was 96.7 µM; with OVCAR-4 ovarian, over 100 µM; with OVCAR-8 ovarian, over 100 µM; in the assay on K-562 leukemia, over 100 µM; with NCI-H460 lung it was over 100 µM. Also, the TGI with UACC-257 melanoma is 86.2 µM; in the assay with U251 CNS, 44.7 µM; in the assay on NCI/ADR-RES ovarian, over 100 µM; in the assay with SF-539 CNS, 85.1 µM.
With `O=[N+]([O-])c1ccc(C2=Nn3c(nnc3-c3ccc(Cl)cc3)SC2)o1`, the TGI in the assay with TK-10 renal stood at 29.7 µM; in the assay with 786-0 renal, 23 µM; in the assay with OVCAR-4 ovarian it was 6.66 µM; in the assay with OVCAR-8 ovarian, 26.3 µM; with K-562 leukemia, 4.89 µM; with NCI-H460 lung it was 17.7 µM. In addition, the TGI with UACC-257 melanoma came out at 16.9 µM; in the assay on U251 CNS, 31.5 µM; with NCI/ADR-RES ovarian, 45.1 µM; in the assay on SF-539 CNS, 20.5 µM.
As for `COc1ccc(Cn2cc3c(c2-c2ccccc2)CCc2cnoc2-3)cc1OC`, the GI50 is 2300 nM in the assay on TK-10 renal; 2240 nM in the assay with 786-0 renal; 3560 nM with OVCAR-4 ovarian; 3480 nM in the assay with OVCAR-8 ovarian; 330 nM in the assay with K-562 leukemia; 457 nM in the assay on NCI-H460 lung. Besides, the GI50 in the assay on UACC-257 melanoma is 60400 nM; with U251 CNS it was 774 nM; in the assay with NCI/ADR-RES ovarian it was 324 nM; with SF-539 CNS it was 1020 nM. In addition, the TGI with TK-10 renal, in the assay with 786-0 renal, in the assay with OVCAR-4 ovarian, in the assay with OVCAR-8 ovarian, in the assay on K-562 leukemia and in the assay on NCI-H460 lung was over 100 µM each time. The TGI in the assay with UACC-257 melanoma was over 100 µM; in the assay with U251 CNS, over 100 µM; in the assay with NCI/ADR-RES ovarian, 1.91 µM; in the assay on SF-539 CNS, 5.6 µM.
On to `CN(C)CCCCC(C(=O)CBr)(c1ccccc1)c1ccccc1`, for which the GI50 was 1500 nM in the assay on TK-10 renal; 2120 nM in the assay on 786-0 renal; 1540 nM with OVCAR-4 ovarian; 2520 nM in the assay on OVCAR-8 ovarian; 2080 nM in the assay on K-562 leukemia; 6360 nM with NCI-H460 lung. In addition, the GI50 in the assay on UACC-257 melanoma is 1960 nM; with U251 CNS it was 3070 nM; with NCI/ADR-RES ovarian, 2850 nM; in the assay on SF-539 CNS, 2570 nM. Moreover, the TGI came out at 3.01 µM in the assay on TK-10 renal; 4.37 µM in the assay with 786-0 renal; 7.88 µM with OVCAR-4 ovarian; 8.48 µM in the assay with OVCAR-8 ovarian; 5.48 µM in the assay on K-562 leukemia; 23 µM in the assay with NCI-H460 lung. The TGI was 6.59 µM in the assay with UACC-257 melanoma, 11.5 µM in the assay with U251 CNS, 10.1 µM in the assay on NCI/ADR-RES ovarian and 6.84 µM in the assay on SF-539 CNS.
`CC1=NN(c2ccc(S(=O)(=O)O)cc2)C(=O)/C1=C/c1ccc(Cl)cc1`: the TGI in the assay with TK-10 renal, in the assay with 786-0 renal, in the assay with OVCAR-4 ovarian, in the assay with OVCAR-8 ovarian, in the assay with K-562 leukemia and in the assay with NCI-H460 lung was over 100 µM each time. In addition, the TGI in the assay with UACC-257 melanoma, with U251 CNS, in the assay on NCI/ADR-RES ovarian and in the assay on SF-539 CNS was over 100 µM each time.
For the molecule `N=N/C(=C\c1c(O)[nH]c2ccccc12)c1ccccc1`, the TGI with TK-10 renal was over 100 µM; in the assay with 786-0 renal it was over 77 µM; in the assay on OVCAR-4 ovarian it was over 100 µM; with OVCAR-8 ovarian, over 57.5 µM; with K-562 leukemia, over 100 µM; in the assay with NCI-H460 lung, over 100 µM. In addition, the TGI is over 100 µM in the assay on UACC-257 melanoma, over 83.9 µM with U251 CNS, over 57.2 µM with NCI/ADR-RES ovarian and 37.9 µM in the assay on SF-539 CNS.
Take `N#C[Se]CCN1C(=O)C2C(C1=O)[C@H]1C=C[C@@H]2S1` (stereo not given in full): the GI50 with TK-10 renal was 2160 nM; with 786-0 renal, 1970 nM; with OVCAR-4 ovarian, 1850 nM; in the assay on OVCAR-8 ovarian, 2110 nM; in the assay with K-562 leukemia, 3240 nM; with NCI-H460 lung, 1930 nM. Besides, the GI50 was 1970 nM in the assay on UACC-257 melanoma, 1800 nM in the assay with U251 CNS, 2400 nM in the assay on NCI/ADR-RES ovarian and 1690 nM in the assay with SF-539 CNS. The TGI in the assay with TK-10 renal is 4.44 µM; with 786-0 renal, 3.68 µM; in the assay with OVCAR-4 ovarian it was 6.1 µM; in the assay with OVCAR-8 ovarian, 5.26 µM; in the assay with K-562 leukemia it was 12 µM; with NCI-H460 lung, 6.77 µM. In addition, the TGI with UACC-257 melanoma was 5.4 µM; with U251 CNS it was 4.13 µM; in the assay with NCI/ADR-RES ovarian, 7.18 µM; in the assay with SF-539 CNS, 3.18 µM.
Take `Cc1ccc2c(c1)c(Sc1ccc(C(=O)NO)cc1)c1n2CN(C)CC1`: the GI50 with TK-10 renal was 2190 nM; in the assay with 786-0 renal it was 2820 nM; in the assay with OVCAR-4 ovarian it was 1510 nM; in the assay on OVCAR-8 ovarian, 1690 nM; in the assay on K-562 leukemia it was 3170 nM; in the assay with NCI-H460 lung it was 2050 nM. The GI50 with UACC-257 melanoma is 1480 nM; in the assay on U251 CNS, 1610 nM; in the assay on NCI/ADR-RES ovarian it was 3880 nM; in the assay with SF-539 CNS it was 1400 nM. Further, the TGI in the assay on TK-10 renal came to 6.73 µM; in the assay on 786-0 renal, 8.53 µM; in the assay on OVCAR-4 ovarian it was 9.04 µM; with OVCAR-8 ovarian, 4.99 µM; in the assay with K-562 leukemia, 11.9 µM; in the assay on NCI-H460 lung, 6.16 µM. The TGI in the assay with UACC-257 melanoma was 5.37 µM; in the assay with U251 CNS it was 3.42 µM; in the assay on NCI/ADR-RES ovarian, 19 µM; in the assay with SF-539 CNS, 2.92 µM.
Take `CCCCCCn1c(-c2ccc(C(=O)O/N=C(\N)c3ccc4ccccc4c3)cc2)nc(-c2ccccc2)c1-c1ccccc1`: the GI50 was 16000 nM in the assay on TK-10 renal; 7630 nM with 786-0 renal; over 100000 nM in the assay with OVCAR-4 ovarian; over 96300 nM with OVCAR-8 ovarian; 2420 nM with K-562 leukemia; over 100000 nM in the assay on NCI-H460 lung. For the same molecule, the GI50 in the assay on UACC-257 melanoma was over 100000 nM; in the assay on U251 CNS, 7640 nM; in the assay on NCI/ADR-RES ovarian it was 3020 nM; in the assay on SF-539 CNS it was 12500 nM. Further, the TGI in the assay with TK-10 renal was over 88.5 µM; in the assay on 786-0 renal, over 100 µM; with OVCAR-4 ovarian it was over 100 µM; in the assay with OVCAR-8 ovarian, over 100 µM; in the assay with K-562 leukemia it was over 100 µM; in the assay with NCI-H460 lung, over 100 µM. The TGI in the assay on UACC-257 melanoma, in the assay on U251 CNS, in the assay with NCI/ADR-RES ovarian and in the assay with SF-539 CNS was over 100 µM throughout.
